Data on four compounds can be found in paper PMC2880318 (Immunome Research, 2010).

The target in this assay is purified HLA-DRB1*0101 (Homo sapiens, UniProt P01903+P01911, A100R/D57E/F55L/F60I/F76Y/I96L/L162R/M171V/P40L/Q125E/R42F/V115G/Y59C). Nature of the assay: biochemical. It is filed as binding.
A word on the IC50: it is the point on the concentration scale where inhibition reaches its midpoint. `CC[C@H](C)[C@H](NC(=O)[C@H](CC(C)C)NC(=O)[C@H](Cc1ccccc1)NC(=O)[C@@H](NC(=O)[C@H](CC(N)=O)NC(=O)[C@@H](NC(=O)CNC(=O)CNC(=O)[C@H](CCCCN)NC(=O)[C@H](CCSC)NC(=O)[C@H](Cc1ccc(O)cc1)NC(=O)[C@H](Cc1ccc(O)cc1)NC(=O)[C@H](Cc1ccccc1)NC(=O)[C@H](CO)NC(=O)[C@@H](N)CC(N)=O)C(C)C)[C@@H](C)O)C(=O)O` [MACV GPC96-110] had an IC50 of 0.21 nM.
The same measure for `CC(C)[C@H](NC(=O)[C@H](C)NC(=O)[C@H](Cc1c[nH]c2ccccc12)NC(=O)[C@H](Cc1ccccc1)NC(=O)[C@H](Cc1ccccc1)NC(=O)[C@H](CC(N)=O)NC(=O)[C@H](CCC(N)=O)NC(=O)[C@H](CC(N)=O)NC(=O)[C@@H](N)CC(N)=O)C(=O)N[C@@H](CCCCN)C(=O)N1CCC[C@H]1C(=O)N[C@@H](CCCCN)C(=O)N[C@H](C(=O)N[C@H](C(=O)N[C@@H](CCCNC(=N)N)C(=O)O)C(C)C)C(C)C` [MACV L1711-1725]: 1.7 nM; for `CC(C)C[C@H](NC(=O)CNC(=O)[C@H](CC(C)C)NC(=O)[C@H](CO)NC(=O)[C@@H](NC(=O)[C@H](CC(C)C)NC(=O)[C@H](C)NC(=O)[C@H](CCC(N)=O)NC(=O)[C@@H](NC(=O)[C@@H](NC(=O)[C@H](CC(N)=O)NC(=O)[C@@H](N)CC(N)=O)C(C)C)C(C)C)[C@@H](C)O)C(=O)N[C@@H](CC(C)C)C(=O)N[C@@H](Cc1ccc(O)cc1)C(=O)N[C@H](C(=O)O)[C@@H](C)O` [GTOV NP191-205]: 0.29 nM.
The compound `CC(C)C[C@H](NC(=O)CNC(=O)[C@H](CC(C)C)NC(=O)[C@H](CO)NC(=O)[C@@H](NC(=O)[C@H](CC(C)C)NC(=O)[C@H](C)NC(=O)[C@H](CCC(N)=O)NC(=O)[C@@H](NC(=O)[C@@H](NC(=O)[C@H](CO)NC(=O)[C@@H](N)CC(N)=O)C(C)C)C(C)C)[C@@H](C)O)C(=O)N[C@@H](CC(C)C)C(=O)N[C@@H](Cc1ccc(O)cc1)C(=O)N[C@H](C(=O)O)[C@@H](C)O` [MACV NP191-205] had an IC50 of 0.78 nM.
